{"source": "patent US10995068B2", "about": "“Synthetic sphingolipid-like molecules, drugs, methods of their synthesis and methods of treatment” (The Regents of the University of California, priority 2015, dated 2021)", "key": {"[1]": {"test_system": "mPCE subcutaneous isografts", "experiment": "mPCE subcutaneous prostate isografts", "assay_type": "in vivo", "conditions": "C57BL/6 mice", "experimental": "The ability of starvation-inducing sphingolipid-like drugs to affect the growth of slow growing or autochthonous neoplasms was also evaluated. In C57BL/6 mice bearing mPCE subcutaneous isografts, 60 mg/kg SH-BC-893 was given daily by gavage and slowed tumor growth by 60% similar to results with SW620 xenografts dosed with 20 mg/kg i.p. (FIGS. 53G-I and 65I). At 120 mg/kg, SH-BC-893 inhibited prostate tumor growth by more than 90% (FIG. 65I). […] Akt activity was slightly elevated by SH-BC-893 consistent with loss of TORC1-mediated negative feedback. Thus, sphingolipid-like compounds, such as SH-BC-893, are effective against neoplasms with distinct molecular defects and metabolic characteristics.\nIn vivo studies. Experiments conducted in mice were performed in accordance with the Institutional Animal Care and Use Committee of University of California, Irvine following a power analysis conducted in consultation with the Biostatistics Shared Resource of Chao Family Comprehensive Cancer Center at UCI. […] Tumor volume was calculated using the formula, volume (mm^3)=length [mm]×(width [mm])^2×0.52; BLI was measured using an IVIS imaging system (Xenogen). […] Blood chemistry was analyzed by IDEXX BioResearch and complete blood counts were performed using a Hemavet hematology system."}, "SW620 cells": {"test_system": "SW620 cells", "experiment": "Phosphorylation in intact cells by UPLC-MS/MS, SW620", "assay_type": "in vitro ADME, human", "conditions": "10 μM, 16 h incubation, percent of total compound recovered by UPLC-MS/MS", "experimental": "Mass spectrometric quantification: One million PC3 or 5 million SW620 cells in one well of a 6 well plate are treated with 10 μM FTY720 or 5 for 16 h. Media (100 μl) is removed from the well and combined with 100 μl of acetonitrile. Cells are collected by scraping, pelleted, and re-suspended in 100 μl of HPLC-grade water followed by the addition of 100 μl acetonitrile. Seventy-five nanograms of the compounds not being quantified (FTY720 and FTY720-P for analysis of the phosphorylation of 5, or 5 and 5-P for the analysis of FTY720/FYT720-P) is added to serve as an internal standard to allow correction for loss of compound during sample preparation. […] Insoluble material is again removed by centrifugation and the supernatant analyzed for compound content. Twenty microliters of this de-proteinated sample is analyzed by UPLC-MS/MS (Waters Micromass Quattro Premier XE) equipped with a C18 reversed phase column (Waters) using an acetonitrile (+0.2% acetic acid) gradient elution. […] The cone voltages are 30V for FTY720 and 5, and 20V for FTY720-P and 5-P. A standard curve is generated using pure compounds to allow for quantification; standard curves were linear from 50-1000 ng/ml with an R^2 of 0.98 or greater. […]"}}}
{"smiles": "CCCCCCCCc1ccc([C@H]2CCN[C@@H]2CO)cc1.Cl", "note": "[Compound 5, (2S,3R)-2-(hydroxymethyl)-3-(4-octylphenyl)Pyrrolidinium chloride]", "values": [{"measurement": "slowing of tumor growth", "setting": "[1]; 60 mg/kg daily by gavage", "result": 60, "unit": "%"}, {"measurement": "inhibition of prostate tumor growth", "setting": "[1]; 120 mg/kg", "result": "more than 90%"}, {"measurement": "efficiency of phosphorylation in intact cells", "setting": "SW620 cells", "result": "phosphorylated slightly more efficiently than FTY720"}]}
